# Source: patent US20240381872A1, “SUBSTITUTED 2,3-DIHYDRO[1,3]THIAZOLO[4,5-B]PYRIDINES, SALTS THEREOF AND THEIR USE AS HERBICIDALLY ACTIVE SUBSTANCES” (BAYER AKTIENGESELLSCHAFT, priority 2021, published 2024)
# What was measured:
# Type in all cases: in vivo
# [1] = system: Echinochloa crus-galli (ECHCG); assay: Herbicidal pre-emergence action, section C (Table C3); conditions: visual grading after ca. 3 weeks vs untreated controls; for pest or weed control at 80 g/ha: Echinochloa crus-galli, pre-emergence, 504 h, application rate 80 g/ha, read-out: pre-emergence activity against ECHCG in %
# In short: (§1)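 Pre-emergence, sandy loam. WP/EC formulations applied to covering soil surface, aqueous, + 0.5% additive, 600 l water/ha. Greenhouse, optimum growth. Visual % damage vs untreated, ca. 3 wk.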
# Lolium rigidum (LOLRI) = assay: Herbicidal pre-emergence action, section C (Table C5); conditions: Lolium rigidum, pre-emergence, 504 h, visual grading after ca. 3 weeks, read-out: pre-emergence activity against LOLRI in %; for pest or weed control at 80 g/ha: application rate 80 g/ha
# Description: (§2) Seeds of mono- and dicotyledonous weed plants and crop plants were sown, in plastic or organic planting pots, in sandy loam and covered with soil. The compounds according to the invention, formulated in the form of wettable powders (WP) or as emulsifiable concentrates (EC), were applied to the surface of the covering soil as aqueous suspension or emulsion, with the addition of 0.5% of an additive, at an application rate of 600 l of water/ha (converted). Following treatment, the pots were placed in a greenhouse and kept under optimum growth conditions for the test plants. The visual grading of the damage to the test plants was carried out after ca. 3 weeks in comparison to untreated controls (herbicidal effect in percent (%): 100% effect=plants have died off, 0% effect=as control plants).
# [2] = system: Polygonum convolvulus (POLCO); assay: Herbicidal pre-emergence action, section C (Table C7); conditions: Fallopia convolvulus, pre-emergence, 504 h; application rate 320 g/ha; visual grading after ca. 3 weeks; read-out: pre-emergence activity against POLCO in %
# In short: as §1
# Veronica persica (VERPE) [3] = assay: Herbicidal pre-emergence action, section C (Table C10); conditions: Veronica persica, pre-emergence, 504 h; application rate 320 g/ha; visual grading after ca. 3 weeks; read-out: pre-emergence activity against VERPE in %
# Description: as §2
# [4] = system: Echinochloa crus-galli (ECHCG); assay: Herbicidal post-emergence action, section E (Table E5); conditions: visual assessment ca. 3 weeks after spraying
# Description: Seeds of mono- and dicotyledonous weed plants and crop plants were sown, in plastic or organic planting pots, in sandy loam, covered with soil and grown in a greenhouse under controlled growth conditions. 2 to 3 weeks after sowing, the test plants were sprayed in the single-leaf stage. The compounds according to the invention, formulated in form of wettable powders (WP) or as emulsifiable concentrates (EC), were sprayed onto the green plant parts as aqueous suspension or emulsion, with the addition of 0.5% of an additive, at an application rate of 600 l of water/ha (converted). The test plants were placed in the greenhouse for ca. 3 weeks under optimum growth conditions, and then the effect of the preparations was assessed visually in comparison with untreated controls (herbicidal effect in percent (%): 100% effect=plants have died off, 0% effect=as control plants).
# Veronica persica (VERPE) [5] = assay: Herbicidal post-emergence action, section E (Table E9); conditions: Veronica persica, 504 h, application rate 80 g/ha, visual assessment ca. 3 weeks after spraying, read-out: post-emergence activity against VERPE in %
# In short: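 Post-emergence greenhouse spray onto single-leaf-stage plants raised in sandy loam, using WP or EC formulations with 0.5% additive at 600 l water/ha. Effect is the visual percentage damage relative to untreated controls after about 3 weeks.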
# [6] = system: Alopecurus myosuroides (ALOMY); assay: Herbicidal pre-emergence action, section A (Table A2); conditions: application rate 1280 g/ha, visual grading after ca. 3 weeks vs untreated controls; for pest or weed control at 1280 g/ha: Alopecurus myosuroides, pre-emergence, 504 h, read-out: pre-emergence activity against ALOMY in %
# In short: (§3)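 Seeds sown in sandy loam and covered with soil; compounds formulated as WP or EC were applied to the soil surface as aqueous suspension or emulsion with 0.5% additive at 600 l water/ha. Pots kept in greenhouse under optimum conditions; damage scored visually after ca. 3 weeks versus untreated controls (0–100%).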
# [7] = system: Echinochloa crus-galli (ECHCG); assay: Herbicidal pre-emergence action, section A (Table A3); conditions: visual grading after ca. 3 weeks vs untreated controls; for pest or weed control at 320 g/ha: Echinochloa crus-galli, pre-emergence, 504 h, application rate 320 g/ha, read-out: pre-emergence activity against ECHCG in %
# In short: as §3
# Kochia scoparia (KCHSC) = assay: Herbicidal pre-emergence action, section A (Table A4); conditions: visual grading after ca. 3 weeks vs untreated controls
# In short: as §3
# Stellaria media (STEME) = assay: Herbicidal pre-emergence action, section A (Table A9)
# In short: as §3
# Veronica persica (VERPE) [8] = assay: Herbicidal pre-emergence action, section A (Table A10); conditions: application rate 1280 g/ha; for pest or weed control at 1280 g/ha: Veronica persica, 504 h, read-out: pre-emergence activity against VERPE in %
# In short: as §3
# Poa annua (POAAN) = assay: Herbicidal post-emergence action, section B (Table B7); conditions: visual rating about 3 weeks after treatment vs untreated controls; for pest or weed control at 1280 g/ha: Poa annua, post-emergence, 504 h, application rate 1280 g/ha, read-out: post-emergence activity against POAAN in %
# In short: (§4)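 Activity was scored visually as percent of untreated controls about 3 weeks after spraying, where 100% meant dead plants and 0% meant no difference. Plants were treated at the one-leaf stage with WP or EC formulations in water containing 0.5% additive, applied at 600 liters per hectare.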
# Setaria viridis (SETVI) = assay: Herbicidal post-emergence action, section B (Table B8); conditions: application rate 1280 g/ha, visual rating about 3 weeks after treatment vs untreated controls; for pest or weed control at 1280 g/ha: Setaria viridis, post-emergence, 504 h, read-out: post-emergence activity against SETVI in %
# In short: as §4
# Veronica persica (VERPE) [9] = assay: Herbicidal post-emergence action, section B (Table B10); conditions: visual rating about 3 weeks after treatment vs untreated controls
# In short: as §4
# [10] = Echinochloa crus-galli, 504 h, application rate 320 g/ha, read-out: post-emergence activity against ECHCG in %
Compound,pest or weed control at 80 g/ha [1] [%],pest or weed control at 80 g/ha (Lolium rigidum (LOLRI)) [%],pest or weed control at 320 g/ha [2] [%],pest or weed control at 320 g/ha (Veronica persica (VERPE) [3]) [%],"pest or weed control at 320 g/ha [4, 10] [%]",pest or weed control at 80 g/ha (Veronica persica (VERPE) [5]) [%],pest or weed control at 1280 g/ha [6] [%],pest or weed control at 320 g/ha [7] [%],pest or weed control at 1280 g/ha (Veronica persica (VERPE) [8]) [%],pest or weed control at 1280 g/ha (Poa annua (POAAN)) [%],pest or weed control at 1280 g/ha (Setaria viridis (SETVI)) [%],also measured
"Fc1ccccc1-c1nc2c(cc1Br)SCN2 [Example I-001, 6-bromo-5-(2-fluorophenyl)-2,3-dihydro[1,3]thiazolo[4,5-b]pyridine]",100,100,80,80,90,80,,,,,,
COC(=O)CCC(=O)N1CSc2cc(Cl)c(-c3ccccc3F)nc21 [Example I-003],,,,,,,,,,,,pre-emergence activity against ALOMY in % [6]: 100%; pre-emergence activity against ECHCG in % ([7]; application rate 1280 g/ha): 100%; pre-emergence activity against KCHSC in % (Kochia scoparia (KCHSC); application rate 1280 g/ha): 100%; pre-emergence activity against STEME in % (Stellaria media (STEME); application rate 1280 g/ha): 90%; pre-emergence activity against VERPE in % (Veronica persica (VERPE) [8]): 90%; post-emergence activity against POAAN in % (Poa annua (POAAN); application rate 320 g/ha): 100%; post-emergence activity against SETVI in % (Setaria viridis (SETVI)): 90%; post-emergence activity against VERPE in % (Veronica persica (VERPE) [9]; application rate 320 g/ha): 100%; pre-emergence activity against ECHCG in % ([1]; application rate 320 g/ha): 80%; post-emergence activity against ECHCG in % ([4]; application rate 320 g/ha): 80%
"Cc1cc2c(nc1-c1ccccc1F)NCS2 [Example I-007, 5-(2-fluorophenyl)-6-methyl-2,3-dihydro[1,3]thiazolo[4,5-b]pyridine]",100,100,80,80,,80,100,100,90,90,90,"pest or weed control at 1280 g/ha (Kochia scoparia (KCHSC); Bassia scoparia, pre-emergence, 504 h, application rate 1280 g/ha, read-out: pre-emergence activity against KCHSC in %): 90%; pest or weed control at 1280 g/ha (Stellaria media (STEME); Stellaria media, 504 h, application rate 1280 g/ha, read-out: pre-emergence activity against STEME in %): 90%; pest or weed control at 320 g/ha (Veronica persica (VERPE) [9]; Veronica persica, post-emergence, 504 h, application rate 320 g/ha, read-out: post-emergence activity against VERPE in %): 90%; pest or weed control at 80 g/ha ([4]; Echinochloa crus-galli, 504 h, application rate 80 g/ha, read-out: post-emergence activity against ECHCG in %): 90%"
"Cc1cc2c(nc1-c1cccc(F)c1F)NCS2 [Example I-029, 5-(2,3-difluorophenyl)-6-methyl-2,3-dihydro[1,3]thiazolo[4,5-b]pyridine]",100,,80,80,80,,90,100,90,90,90,"pest or weed control at 320 g/ha (Kochia scoparia (KCHSC); Bassia scoparia, pre-emergence, 504 h, application rate 320 g/ha, read-out: pre-emergence activity against KCHSC in %): 100%; pest or weed control at 320 g/ha (Stellaria media (STEME); Stellaria media, 504 h, application rate 320 g/ha, read-out: pre-emergence activity against STEME in %): 90%; pest or weed control at 1280 g/ha (Veronica persica (VERPE) [9]; Veronica persica, post-emergence, 504 h, application rate 1280 g/ha, read-out: post-emergence activity against VERPE in %): 90%; pest or weed control at 320 g/ha (Lolium rigidum (LOLRI); application rate 320 g/ha): 100%"
